Source: US20110144077A1, “TREATMENT OF RETINAL DEGENERATION” (priority 2008, published 2011)
Entries after “also recorded” stand apart in the source; their conditions may differ.

Key:
[1] = test system: photoreceptor cells in the outer nuclear layer (ONL); test: Retinal explant culture, SNP induced apoptosis detected by TUNEL; type: cell-based, C57BL/6 mice
Method: Retinal explant culture: Eyes from postnatal day 10, C57BL/6 mice were removed and cleaned with 70% ethanol. The anterior segment, vitreous body, and sclera were removed and the retina mounted on Millicell nitrocellulose inserts (Millipore, Billerica, Mass.) photoreceptor-side down. Explants were cultured without retinal pigment epithelium (RPE) in 1.2 ml of R16 specialised media (from Dr. P. A. Ekstrom, Wallenberg Retina Centre, Lund University, Lund, Sweden) without additional serum. Treated explants were cultured in medium containing 300 μM of the nitric oxide donor SNP (sodium nitroprusside) for 24 h. Pre-treatment with norgestrel was for 1 hour.
(§1) Apoptosis detection by Terminal deoxynucleotidyl transferase-mediated biotinylated UTP nick end labeling (TUNEL): Retinal explants were fixed in 10% neutral buffered formalin overnight at 4° C., followed by cryoprotection in 25% sucrose overnight at 4° C. Frozen sections (7 μm) were incubated with terminal deoxynucleotidyl transferase (MSC, Dublin, Republic of Ireland) and fluorescein-12-dUTP (Roche, Lewes, UK) according to manufacturers' instructions at 37° C. for 1 h. Sections were mounted and viewed under a fluorescence microscope (Leica DM LB2; Leica, Nussloch, Germany) using an FITC filter.

[2] = test system: photoreceptor cells in the outer nuclear layer (ONL); test: rd10 model of chronic retinal degeneration; type: in vivo, rd10 mouse
Method: Peanut agglutinin (PNA) staining: Eyes were fixed in 10% neutral buffered formalin overnight at 4° C., followed by cryoprotection in 25% sucrose overnight at 4° C. Frozen sections (7 μm) were blocked with 0.1% bovine serum albumin (BSA) in 0.1% tween/PBS for 30 minutes at room temperature. Sections were incubated with rhodamine conjugated PNA (Invitrogen, Dun Laoghaire, Ireland) for 20 minutes at room temperature as per manufacturers' instructions. Sections were mounted and viewed under a fluorescence microscope (Leica DM LB2; Leica, Nussloch, Germany) using a TRITC filter. Immunofluorescence: Eyes were fixed in 10% neutral buffered formalin overnight at 4° C., followed by cryoprotection in 25% sucrose overnight at 4° C. Frozen sections (7 μm) were blocked with 0.1% bovine serum albumin (BSA) in 0.1% tween/PBS for 1 hour at room temperature. Sections were incubated with anti-rhodopsin antibody (LAB VISION Corporation, Fremont, Calif., USA) overnight at 4° C. Sections were washed and incubated with FITC conjugated secondary mouse antibody (Dako, Glostrup, Denmark) for 1 hour at room temperature. Following further washes, sections were mounted and viewed under a fluorescence microscope (Leica DM LB2; Leica, Nussloch, Germany) using a FITC filter. […] It is a better model of the slow progression of typical human autosomal recessive RP than the acute light model as photoreceptor cells are lost over a period of weeks rather than days. Loss of photoreceptors in the rd10 mouse begins at approximately 2 weeks of age, with the peak of photoreceptor death occurring at postnatal day (P) 25.

photoreceptor cells = test: Light damage model in vivo, TUNEL staining of ONL; set-up: species or system albino balb/c mice
Method: as §1
Light damage model: Balb/c mice were dark adapted for 18 h prior to exposure to constant light. Mice were injected intraperitoneally with 100 mg/kg of norgestrel 1 hour prior to light damage. Immediately prior to light exposure their pupils were dilated with 0.5% cyclopentolate under red light. Retinal light damage was induced by exposure to 2 h of cool white fluorescent light at an illumination of 5000 lux. Following exposure to constant light, animals were placed in the dark for 24 h then killed immediately by cervical dislocation.
TUNEL staining was performed as described above.

[3] = compared to uninjected or vehicle injected controls

C#CC1(O)CC[C@H]2[C@@H]3CCC4=CC(=O)CC[C@@H]4[C@H]3CC[C@@]21CC (mixture of isomers) [norgestrel]
protection of photoreceptors from SNP induced apoptosis (TUNEL) ([1]; ex vivo retinal explants, 300 μM SNP for 24 h, 1 hour norgestrel pre-treatment, increasing concentrations): protected from SNP induced apoptosis; also recorded: protects photoreceptive cells from SNP induced cell death
toxicity to retinal cells ([1]; retinal explants, norgestrel alone at the highest concentration used): not toxic to retinal cells
protection of layers of photoreceptor nuclei, central retina ([2]; 100 mg/kg IP every second day P18-P30, central retina): 1-2 layers
protection of layers of photoreceptor nuclei, peripheral retina ([2]; 100 mg/kg IP every second day P18-P30, peripheral retina): 4-5 layers
protection of layers of photoreceptor nuclei in the ONL, central retina ([2]; 100 mg/kg injected daily, P25, central retina): 3-4 layers
protection of layers in the ONL, peripheral retina ([2]; 100 mg/kg injected daily, P25, peripheral retina): 3-4 layers
degeneration of central retina, photoreceptor nuclei remaining at P25 and P30 versus vehicle ([2]; central retina, P25 and P30): degenerates more slowly
PNA staining (cone photoreceptors) in the ONL [2, 3]: more cone cells are found
rhodopsin immunofluorescent staining (rod photoreceptors) in the ONL [2, 3]: more rhodopsin positive cells remain
degeneration of peripheral retina between P25 and P30 versus vehicle ([2]; peripheral retina, P25 to P30): degeneration of the peripheral retina virtually ceases
protection with injection every second day versus daily ([2]; rd10, P25, every second day compared with daily): equally as protected
protection of photoreceptors from light induced retinal damage / apoptosis (photoreceptor cells; 100 mg/kg IP, 1 hour before 2 h light damage): protects from the retinal damage observed; also recorded: Photoreceptors are protected
duration of protection after a single injection (photoreceptor cells; 100 mg/kg, single injection, post light damage): 72 h
protection from light induced cell death (TUNEL positive cells) (photoreceptor cells; central retina, 24 hours, 100 mg/kg): approx 70%
